From the NIST ThermoML archive (doi:10.1016/j.jct.2016.11.009)

Test: xn = mol fraction of the nth substance listed
Conditions: Fluid (supercritical or subcritical phases), Buoyancy - hydrostatic balance with magnetic suspension - one sinker

C [methane] + O=C=O
Conditions | mass density [kg/m3]
303.29 K, 11998 kPa, x2 = 0.8988 | 626.792
303.29 K, 15006 kPa, x2 = 0.3997 | 237.974
305.01 K, 18003 kPa, x2 = 0.8988 | 732.397
305.04 K, 7997 kPa, x2 = 0.8988 | 244.829
305.06 K, 9978 kPa, x2 = 0.8988 | 474.418
305.08 K, 11001 kPa, x2 = 0.3997 | 159.477
305.09 K, 12002 kPa, x2 = 0.0998 | 107.694
305.1 K, 4001 kPa, x2 = 0.3997 | 47.504
305.1 K, 17995 kPa, x2 = 0.6015 | 408.107
305.11 K, 3997 kPa, x2 = 0.7985 | 72.035
305.11 K, 5997 kPa, x2 = 0.0998 | 49.434
305.11 K, 6003 kPa, x2 = 0.7985 | 122.855
305.12 K, 3998 kPa, x2 = 0.8988 | 79.325
305.12 K, 5006 kPa, x2 = 0.7985 | 95.778
305.13 K, 6992 kPa, x2 = 0.0998 | 58.605
305.13 K, 6994 kPa, x2 = 0.8988 | 182.804
305.13 K, 9002 kPa, x2 = 0.0998 | 77.799
305.13 K, 11012 kPa, x2 = 0.6015 | 223.4
305.13 K, 14994 kPa, x2 = 0.3997 | 233.75
305.14 K, 5001 kPa, x2 = 0.6015 | 76.729
305.14 K, 14994 kPa, x2 = 0.7985 | 546.063
305.15 K, 3979 kPa, x2 = 0.6015 | 58.587
305.15 K, 6000 kPa, x2 = 0.6015 | 96.024
305.15 K, 7998 kPa, x2 = 0.0998 | 68.122
305.15 K, 9004 kPa, x2 = 0.6015 | 165.984
305.15 K, 11001 kPa, x2 = 0.2017 | 116.026
305.15 K, 11998 kPa, x2 = 0.2017 | 128.322
305.15 K, 12006 kPa, x2 = 0.3997 | 178.104
305.16 K, 3003 kPa, x2 = 0.0998 | 23.496
305.16 K, 4003 kPa, x2 = 0.0998 | 31.879
305.16 K, 8002 kPa, x2 = 0.2017 | 80.173
305.16 K, 8998 kPa, x2 = 0.3997 | 123.489
305.16 K, 10996 kPa, x2 = 0.8988 | 555.932
305.16 K, 14996 kPa, x2 = 0.0998 | 137.438
305.16 K, 15000 kPa, x2 = 0.6015 | 340.932
305.16 K, 18000 kPa, x2 = 0.2017 | 199.543
305.17 K, 6999 kPa, x2 = 0.6015 | 117.142
305.17 K, 7000 kPa, x2 = 0.7985 | 154.794
305.17 K, 10003 kPa, x2 = 0.0998 | 87.669
305.17 K, 10999 kPa, x2 = 0.0998 | 97.609
305.17 K, 18001 kPa, x2 = 0.0998 | 165.624
305.18 K, 4001 kPa, x2 = 0.2017 | 37.03
305.18 K, 4996 kPa, x2 = 0.3997 | 60.999
305.18 K, 5001 kPa, x2 = 0.2017 | 47.235
305.18 K, 6000 kPa, x2 = 0.3997 | 75.426
305.18 K, 7002 kPa, x2 = 0.3997 | 90.651
305.18 K, 8000 kPa, x2 = 0.6015 | 140.462
305.18 K, 9997 kPa, x2 = 0.3997 | 141.056
305.18 K, 11999 kPa, x2 = 0.7985 | 429.815
305.18 K, 14999 kPa, x2 = 0.2017 | 165.099
305.18 K, 18002 kPa, x2 = 0.7985 | 608.035
305.19 K, 7000 kPa, x2 = 0.2017 | 68.786
305.19 K, 9001 kPa, x2 = 0.2017 | 91.841
305.19 K, 9001 kPa, x2 = 0.7985 | 243.07
305.19 K, 12005 kPa, x2 = 0.6015 | 253.791
305.2 K, 5004 kPa, x2 = 0.8988 | 106.835
305.2 K, 10000 kPa, x2 = 0.2017 | 103.792
305.2 K, 11001 kPa, x2 = 0.7985 | 369.844
305.2 K, 11998 kPa, x2 = 0.8988 | 604.408
305.21 K, 8996 kPa, x2 = 0.8988 | 345.688
305.21 K, 15000 kPa, x2 = 0.8988 | 683.999
305.22 K, 6000 kPa, x2 = 0.2017 | 57.81
305.22 K, 8006 kPa, x2 = 0.3997 | 106.718
305.22 K, 10006 kPa, x2 = 0.6015 | 193.541
305.23 K, 5002 kPa, x2 = 0.0998 | 40.525
305.23 K, 6002 kPa, x2 = 0.8988 | 139.912
305.23 K, 10000 kPa, x2 = 0.7985 | 303.258
305.24 K, 8000 kPa, x2 = 0.7985 | 193.79
305.24 K, 17994 kPa, x2 = 0.3997 | 283.653
308.05 K, 7997 kPa, x2 = 0.8988 | 229.008
308.06 K, 6995 kPa, x2 = 0.8988 | 175.453
308.08 K, 10996 kPa, x2 = 0.3997 | 155.394
308.09 K, 8982 kPa, x2 = 0.8988 | 306.981
308.11 K, 7002 kPa, x2 = 0.6015 | 114.28
308.11 K, 7996 kPa, x2 = 0.2017 | 78.731
308.11 K, 18002 kPa, x2 = 0.8988 | 711.774
308.12 K, 8003 kPa, x2 = 0.6015 | 136.504
308.12 K, 11997 kPa, x2 = 0.7985 | 401.005
308.12 K, 18001 kPa, x2 = 0.2017 | 195.388
308.12 K, 18004 kPa, x2 = 0.0998 | 162.496
308.13 K, 8003 kPa, x2 = 0.3997 | 104.538
308.13 K, 9004 kPa, x2 = 0.2017 | 90.207
308.13 K, 10002 kPa, x2 = 0.2017 | 101.87
308.13 K, 11000 kPa, x2 = 0.0998 | 95.867
308.13 K, 11001 kPa, x2 = 0.6015 | 214.588
308.13 K, 15001 kPa, x2 = 0.7985 | 523.511
308.13 K, 15007 kPa, x2 = 0.6015 | 328.628
308.14 K, 5002 kPa, x2 = 0.2017 | 46.531
308.14 K, 5997 kPa, x2 = 0.6015 | 93.812
308.14 K, 6001 kPa, x2 = 0.3997 | 74.193
308.14 K, 8998 kPa, x2 = 0.6015 | 160.546
308.14 K, 11000 kPa, x2 = 0.2017 | 113.723
308.14 K, 11000 kPa, x2 = 0.7985 | 342.357
308.14 K, 12002 kPa, x2 = 0.6015 | 243.454
308.14 K, 14996 kPa, x2 = 0.3997 | 227.135
308.15 K, 3000 kPa, x2 = 0.0998 | 23.193
308.15 K, 6999 kPa, x2 = 0.0998 | 57.796
308.15 K, 8996 kPa, x2 = 0.3997 | 120.739
308.15 K, 14997 kPa, x2 = 0.0998 | 134.77
308.16 K, 4002 kPa, x2 = 0.2017 | 36.486
308.16 K, 4004 kPa, x2 = 0.6015 | 57.94
308.16 K, 4006 kPa, x2 = 0.7985 | 70.911
308.16 K, 5006 kPa, x2 = 0.3997 | 60.225
308.16 K, 9001 kPa, x2 = 0.7985 | 229.843
308.16 K, 9993 kPa, x2 = 0.8988 | 417.764
308.16 K, 10002 kPa, x2 = 0.6015 | 186.699
308.16 K, 11997 kPa, x2 = 0.0998 | 105.588
308.16 K, 15001 kPa, x2 = 0.2017 | 161.57
308.16 K, 17997 kPa, x2 = 0.3997 | 276.178
308.17 K, 3998 kPa, x2 = 0.0998 | 31.42
308.17 K, 5006 kPa, x2 = 0.7985 | 93.74
308.17 K, 9004 kPa, x2 = 0.0998 | 76.501
308.17 K, 9994 kPa, x2 = 0.3997 | 137.721
308.17 K, 18002 kPa, x2 = 0.7985 | 590.479
308.18 K, 6001 kPa, x2 = 0.2017 | 56.895
308.18 K, 6999 kPa, x2 = 0.2017 | 67.631
308.18 K, 8000 kPa, x2 = 0.7985 | 185.875
308.18 K, 9999 kPa, x2 = 0.0998 | 86.118
308.19 K, 6002 kPa, x2 = 0.0998 | 48.761
308.19 K, 6002 kPa, x2 = 0.7985 | 119.651
308.19 K, 18000 kPa, x2 = 0.6015 | 395.269
308.2 K, 11998 kPa, x2 = 0.2017 | 125.636
308.21 K, 5001 kPa, x2 = 0.0998 | 39.985
308.21 K, 7002 kPa, x2 = 0.7985 | 149.932
308.22 K, 5002 kPa, x2 = 0.8988 | 104.568
308.22 K, 5006 kPa, x2 = 0.6015 | 75.217
308.22 K, 7001 kPa, x2 = 0.3997 | 88.937
308.22 K, 10003 kPa, x2 = 0.7985 | 282.745
308.23 K, 4004 kPa, x2 = 0.8988 | 78.335
308.23 K, 5998 kPa, x2 = 0.8988 | 135.871
308.23 K, 12000 kPa, x2 = 0.3997 | 173.174
308.24 K, 8000 kPa, x2 = 0.0998 | 67.015
308.24 K, 11004 kPa, x2 = 0.8988 | 513.225
308.26 K, 4003 kPa, x2 = 0.3997 | 46.849
308.26 K, 14998 kPa, x2 = 0.8988 | 660.797
308.34 K, 11928 kPa, x2 = 0.8988 | 563.033
